# Source: patent publication US20150174137A1, “COMPOSITIONS FOR TREATING MICROBIAL INFECTIONS” (ALCON RESEARCH, LTD., priority 2010, published 2015)
# Tests used:
# [1] = Solubility studies of fluoroquinolones (0.3%) with ZnCl2, MgCl2 or CaCl2; conditions: quinolone 0.3%
# [2] = pH 7.4 in 0.1M phosphate buffer; cited from earlier work
# [3] = Solubility studies of finafloxacin monohydrochloride in aqueous solution with various salts; format: physicochemical
# Excerpt: TABLE 1 below summarizes the results of solubility studies using finafloxacin monohydrochloride in aqueous solution with various salts at different concentrations. […] In particular, magnesium salts generated clear, colorless solutions at slightly acidic, physiologically-compatible pH ranges.
# [4] = Solubility of finafloxacin in three magnesium chloride-containing solutions at various pH; format: physicochemical; conditions: for solubility: aqueous with cosolvent or surfactant or cyclodextrin
# [5] = 0.05% MgCl2 5.27 mM + 0.05% ZnCl2 3.67 mM
# [6] = 0.05% MgCl2 5.27 mM + 0.1% ZnCl2 7.34 mM
# [7] = 0.1% MgCl2 10.5 mM + 0.05% ZnCl2 3.67 mM
# [8] = 0.1% MgCl2 10.5 mM + 0.1% ZnCl2 7.3 mM
# [9] = AlCl3 13.5 mM, Conc. (%) 0.180%
# [10] = CaGluconate 17.5 mM, Conc. (%) 0.75%
# [11] = Mg(CH3COO)2 1.3 mM, Conc. (%) 0.019%
# [12] = Mg(CH3COO)2 6.7 mM, Conc. (%) 0.095%
# [13] = Mg(CH3COO)2 13.5 mM, Conc. (%) 0.19%
# [14] = MgCl2 2.45 mM, Conc. (%) 0.023%
# [15] = ZnCl2 13.5 mM, Conc. (%) 0.184%
# [16] = TABLE 3A magnesium chloride-containing solution, final pH 5.73
# [17] = TABLE 3A magnesium chloride-containing solution, final pH 6.23
# [18] = TABLE 3A magnesium chloride-containing solution, final pH 6.58
# [19] = TABLE 3A magnesium chloride-containing solution, final pH 7.12
# [20] = TABLE 3A magnesium chloride-containing solution, final pH 7.55
# [21] = TABLE 3B magnesium chloride-containing solution, pH 6.08
# [22] = TABLE 3B magnesium chloride-containing solution, pH 6.15
# [23] = TABLE 3B magnesium chloride-containing solution, pH 6.69
# [24] = TABLE 3B magnesium chloride-containing solution, pH 7.29
# [25] = TABLE 3B magnesium chloride-containing solution, pH 7.54
# [26] = TABLE 3C magnesium chloride-containing solution, pH 5.22
# [27] = TABLE 3C magnesium chloride-containing solution, pH 6.19
# [28] = TABLE 3C magnesium chloride-containing solution, pH 6.65
# [29] = TABLE 3C magnesium chloride-containing solution, pH 7.16
# [30] = TABLE 3C magnesium chloride-containing solution, pH 7.67
structure (smiles),measurement,setting,value
"COc1c(N2CCNC(C)C2)c(F)cc2c(=O)c(C(=O)O)cn(C3CC3)c12 (stereo not shown) [GATIFLOXACIN, gatifloxacin]",C.C.S. (clear colorless solution) pH Range,"[1]; CaCl2 10.0 mM, Conc. (w/v %) 0.08%",7.31-7.55
same,C.C.S. (clear colorless solution) pH Range,"[1]; MgCl2 10.0 mM, Conc. (w/v %) 0.09%",6.97-7.52
same,C.C.S. (clear colorless solution) pH Range,"[1]; ZnCl2 10.0 mM, Conc. (w/v %) 0.13%",6.61-7.31
same,literature-reported aqueous solubility,[2],0.21 w/v %
"N#Cc1c(N2C[C@@H]3NCCO[C@H]3C2)c(F)cc2c(=O)c(C(=O)O)cn(C3CC3)c12 [Finafloxacin, 8-cyano-1-cyclopropyl-6-fluoro-7-[(4aS,7aS)-hexahydropyrrolo[3,4-b]-1,4-oxazin-6(2H)-yl]-1,4-dihydro-4-oxo-3-quinoline carboxylic acid]",C.C.S. (clear colorless solution) pH Range,[3]; [5],4.86-5.87
same,Observation,[3]; [5],C.C.S
same,C.C.S. (clear colorless solution) pH Range,[3]; [6],4.62-5.86
same,Observation,[3]; [6],C.C.S
same,C.C.S. (clear colorless solution) pH Range,[3]; [7],5.01-5.75
same,Observation,[3]; [7],C.C.S
same,C.C.S. (clear colorless solution) pH Range,[3]; [8],4.68-5.88
same,Observation,[3]; [8],C.C.S
same,C.C.S. (clear colorless solution) pH Range,"[3]; AlCl3 1.3 mM, Conc. (%) 0.018%",Not Formed
same,Observation,"[3]; AlCl3 1.3 mM, Conc. (%) 0.018%",Suspension at pH 3.7-7.4
same,C.C.S. (clear colorless solution) pH Range,"[3]; AlCl3 6.7 mM, Conc. (%) 0.09%",2.83-7.46
same,Observation,"[3]; AlCl3 6.7 mM, Conc. (%) 0.09%",Pale-yellow→at pH 7.58
same,C.C.S. (clear colorless solution) pH Range,[3]; [9],2.50-7.24
same,Observation,[3]; [9],Pale-yellow → at pH 7.41
same,C.C.S. (clear colorless solution) pH Range,"[3]; CaCl2 1.3 mM, Conc. (%) 0.015%",Not Formed
same,Observation,"[3]; CaCl2 1.3 mM, Conc. (%) 0.015%",Suspension at pH 3.7
same,C.C.S. (clear colorless solution) pH Range,"[3]; CaCl2 6.7 mM, Conc. (%) 0.075%",Not Formed
same,Observation,"[3]; CaCl2 6.7 mM, Conc. (%) 0.075%",Suspension at pH 3.7
same,C.C.S. (clear colorless solution) pH Range,"[3]; CaCl2 13.5 mM, Conc. (%) 0.15%",6.45
same,Observation,"[3]; CaCl2 13.5 mM, Conc. (%) 0.15%",C.C.S
same,C.C.S. (clear colorless solution) pH Range,"[3]; CaCl2 20.0 mM, Conc. (%) 0.22%",6.29-6.39
same,Observation,"[3]; CaCl2 20.0 mM, Conc. (%) 0.22%",C.C.S
same,C.C.S. (clear colorless solution) pH Range,[3]; [10],Not Formed
same,Observation,[3]; [10],Suspension at pH 3.7
same,C.C.S. (clear colorless solution) pH Range,"[3]; CuCl2 1.3 mM, Conc. (%) 0.018%",Not Formed
same,Observation,"[3]; CuCl2 1.3 mM, Conc. (%) 0.018%",Suspension at pH 3.7-7.4
same,C.C.S. (clear colorless solution) pH Range,"[3]; CuCl2 6.7 mM, Conc. (%) 0.09%",5.14-7.26
same,Observation,"[3]; CuCl2 6.7 mM, Conc. (%) 0.09%",Light blue coloration
same,C.C.S. (clear colorless solution) pH Range,"[3]; CuCl2 13.5 mM, Conc. (%) 0.18%",5.77-6.11
same,Observation,"[3]; CuCl2 13.5 mM, Conc. (%) 0.18%",Light blue coloration
same,C.C.S. (clear colorless solution) pH Range,"[3]; KCl 93 mM, Conc. (%) 0.7%",Not Formed
same,Observation,"[3]; KCl 93 mM, Conc. (%) 0.7%",Suspension at pH 3.7-7.4
same,C.C.S. (clear colorless solution) pH Range,[3]; [11],Not Formed
same,Observation,[3]; [11],Suspension at pH 3.7-7.4
same,C.C.S. (clear colorless solution) pH Range,[3]; [12],6.05-7.57
same,Observation,[3]; [12],C.C.S.
same,C.C.S. (clear colorless solution) pH Range,[3]; [13],5.21-8.51
same,Observation,[3]; [13],C.C.S.
same,C.C.S. (clear colorless solution) pH Range,"[3]; MgCl2 1.3 mM, Conc. (%) 0.012%",Not Formed
same,Observation,"[3]; MgCl2 1.3 mM, Conc. (%) 0.012%",Suspension at pH 3.7-7.4
same,C.C.S. (clear colorless solution) pH Range,[3]; [14],Not Formed
same,Observation,[3]; [14],Suspension at pH 3.7-7.4
same,C.C.S. (clear colorless solution) pH Range,"[3]; MgCl2 4.91 mM, Conc. (%) […]",6.68-7.65
same,Observation,"[3]; MgCl2 4.91 mM, Conc. (%) […]",C.C.S
same,C.C.S. (clear colorless solution) pH Range,"[3]; MgCl2 6.7 mM, Conc. (%) 0.064%",6.00-9.84
same,Observation,"[3]; MgCl2 6.7 mM, Conc. (%) 0.064%",C.C.S
same,C.C.S. (clear colorless solution) pH Range,"[3]; MgCl2 13.5 mM, Conc. (%) 0.12%",5.26-9.61
same,Observation,"[3]; MgCl2 13.5 mM, Conc. (%) 0.12%",C.C.S
same,C.C.S. (clear colorless solution) pH Range,"[3]; MgSO4 1.3 mM, Conc. (%) 0.016%",Not Formed
same,Observation,"[3]; MgSO4 1.3 mM, Conc. (%) 0.016%",Suspension at pH 3.7-7.4
same,C.C.S. (clear colorless solution) pH Range,"[3]; MgSO4 6.7 mM, Conc. (%) 0.08%",6.36-9.23
same,Observation,"[3]; MgSO4 6.7 mM, Conc. (%) 0.08%",C.C.S
same,C.C.S. (clear colorless solution) pH Range,"[3]; MgSO4 13.5 mM, Conc. (%) 0.16%",6.29-7.44
same,Observation,"[3]; MgSO4 13.5 mM, Conc. (%) 0.16%",C.C.S
same,C.C.S. (clear colorless solution) pH Range,"[3]; NaCl 13.5 mM, Conc. (%) 0.076%",Not Formed
same,Observation,"[3]; NaCl 13.5 mM, Conc. (%) 0.076%",Suspension at pH 3.7-7.4
same,C.C.S. (clear colorless solution) pH Range,"[3]; NaCl 27 mM, Conc. (%) 0.15%",Not Formed
same,Observation,"[3]; NaCl 27 mM, Conc. (%) 0.15%",Suspension at pH 3.7-7.4
same,C.C.S. (clear colorless solution) pH Range,"[3]; NaCl 120 mM, Conc. (%) 0.79%",Not Formed
same,Observation,"[3]; NaCl 120 mM, Conc. (%) 0.79%",Suspension at pH 3.7-7.4
same,C.C.S. (clear colorless solution) pH Range,"[3]; NaSO4 21.3 mM, Conc. (%) 0.3%",Not Formed
same,Observation,"[3]; NaSO4 21.3 mM, Conc. (%) 0.3%",Suspension at pH 3.7-7.4
same,C.C.S. (clear colorless solution) pH Range,"[3]; ZnCl2 1.3 mM, Conc. (%) 0.018%",Not Formed
same,Observation,"[3]; ZnCl2 1.3 mM, Conc. (%) 0.018%",Suspension at pH 3.7-7.4
same,C.C.S. (clear colorless solution) pH Range,"[3]; ZnCl2 6.7 mM, Conc. (%) 0.09%",4.90-5.47
same,Observation,"[3]; ZnCl2 6.7 mM, Conc. (%) 0.09%",C.C.S
same,C.C.S. (clear colorless solution) pH Range,[3]; [15],4.50-5.55
same,Observation,[3]; [15],C.C.S
same,C.C.S. (clear colorless solution) pH Range,"[3]; ZnCl2 20.0 mM, Conc. (%) 0.27%",5.06-5.87
same,Observation,"[3]; ZnCl2 20.0 mM, Conc. (%) 0.27%",C.C.S
same,C.C.S. (clear colorless solution) pH Range,"[3]; ZnSO4 13.5 mM, Conc. (%) 0.22%",5.65
same,Observation,"[3]; ZnSO4 13.5 mM, Conc. (%) 0.22%",C.C.S
same,solubility,[4]; [16],3700 µg/mL
same,solubility,[4]; [17],6660 µg/mL
same,solubility,[4]; [18],5850 µg/mL
same,solubility,[4]; [19],8650 µg/mL
same,solubility,[4]; [20],11400 µg/mL
same,solubility,[4]; [21],2900 µg/mL
same,solubility,[4]; [22],3250 µg/mL
same,solubility,[4]; [23],5760 µg/mL
same,solubility,[4]; [24],8390 µg/mL
same,solubility,[4]; [25],10400 µg/mL
same,solubility,[4]; [26],1190 µg/mL
same,solubility,[4]; [27],1980 µg/mL
same,solubility,[4]; [28],3170 µg/mL
same,solubility,[4]; [29],4590 µg/mL
same,solubility,[4]; [30],8440 µg/mL
"Cl.N#Cc1c(N2C[C@@H]3NCCO[C@H]3C2)c(F)cc2c(=O)c(C(=O)O)cn(C3CC3)c12 [Finafloxacin HCl, finafloxacin monohydrochloride]",Solubility of finafloxacin,[4]; [16],0.404 w/v %
same,Solubility of finafloxacin,[4]; [17],0.727 w/v %
same,Solubility of finafloxacin,[4]; [18],0.638 w/v %
same,Solubility of finafloxacin,[4]; [19],0.944 w/v %
same,Solubility of finafloxacin,[4]; [20],1.244 w/v %
same,Solubility of finafloxacin,[4]; [21],0.316 w/v %
same,Solubility of finafloxacin,[4]; [22],0.355 w/v %
same,Solubility of finafloxacin,[4]; [23],0.628 w/v %
same,Solubility of finafloxacin,[4]; [24],0.915 w/v %
same,Solubility of finafloxacin,[4]; [25],1.140 w/v %
same,Solubility of finafloxacin,[4]; [26],0.130 w/v %
same,Solubility of finafloxacin,[4]; [27],0.216 w/v %
same,Solubility of finafloxacin,[4]; [28],0.346 w/v %
same,Solubility of finafloxacin,[4]; [29],0.501 w/v %
same,Solubility of finafloxacin,[4]; [30],0.921 w/v %
